Measured values published in patent publication US20150216167A1 (Heinrich Heine Universitat Dusseldorf, priority 2011, published 2015).

Key:
[1] = molecular target: T1, C4-PEPC (PEP carboxylase from F. trinervia) (Flaveria trinervia, UniProt P30694); test: Spectrophotometric coupled assay with malate dehydrogenase, purified PEP carboxylases; format: biochemical; conditions: C4 (F. trinervia) versus C3 (F. pringlei) enzyme
T1 construct: histidine tag; made in house; host or cells: E. coli
T1 sequence (P30694 1-966): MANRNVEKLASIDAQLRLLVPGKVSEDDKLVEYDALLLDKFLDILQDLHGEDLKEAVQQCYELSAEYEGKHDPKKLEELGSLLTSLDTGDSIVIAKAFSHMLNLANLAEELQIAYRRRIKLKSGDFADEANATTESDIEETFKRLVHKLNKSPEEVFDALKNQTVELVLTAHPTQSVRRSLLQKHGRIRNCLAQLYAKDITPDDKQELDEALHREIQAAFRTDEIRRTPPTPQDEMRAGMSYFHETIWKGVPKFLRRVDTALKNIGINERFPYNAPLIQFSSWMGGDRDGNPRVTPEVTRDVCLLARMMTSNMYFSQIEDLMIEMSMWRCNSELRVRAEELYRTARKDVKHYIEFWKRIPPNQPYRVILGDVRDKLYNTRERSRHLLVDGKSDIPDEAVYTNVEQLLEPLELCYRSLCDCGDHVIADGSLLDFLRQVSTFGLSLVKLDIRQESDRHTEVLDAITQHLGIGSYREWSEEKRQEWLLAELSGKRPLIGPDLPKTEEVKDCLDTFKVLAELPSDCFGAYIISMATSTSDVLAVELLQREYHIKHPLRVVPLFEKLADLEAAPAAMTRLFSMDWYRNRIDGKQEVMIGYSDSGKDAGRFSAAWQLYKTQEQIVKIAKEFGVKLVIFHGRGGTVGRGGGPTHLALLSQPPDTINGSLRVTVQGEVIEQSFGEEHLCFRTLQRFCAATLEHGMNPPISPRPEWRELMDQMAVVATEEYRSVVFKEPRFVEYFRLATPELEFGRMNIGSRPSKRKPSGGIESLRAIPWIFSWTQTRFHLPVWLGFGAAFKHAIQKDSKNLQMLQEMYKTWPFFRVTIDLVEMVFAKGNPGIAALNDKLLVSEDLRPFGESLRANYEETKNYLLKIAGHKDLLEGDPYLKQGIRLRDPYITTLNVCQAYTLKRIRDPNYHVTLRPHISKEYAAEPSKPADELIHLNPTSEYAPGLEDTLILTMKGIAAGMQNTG
Text: (§1) Inhibition of purified PEP carboxylases from F. pringlei and F. trinervia by compounds selected from the VDS was monitored by a spectrophotometric coupled assay with malate dehydrogenase which reduces the oxaloacetate formed by PEP carboxylase to malate. The simultaneous oxidation of NADH is followed at 340 nm with standard optical equipment. The concentration of the inhibitors selected from the VDS was varied in the coupled assay to determine the half maximal inhibitory concentration (IC50).
as §1, with “(1050).” for “(IC50).”

PEP carboxylase = conditions: Pairoba et al. (1996); cited from earlier work
[2] = high clog values; cited from earlier work
[3] = test system: pyruvate phosphate dikinase (PPDK); conditions: cited from earlier work
bile salt hydrolase = conditions: cited from earlier work

Molecule: Oc1cc(O)c2c(c1)O[C@H](c1ccc(O)c(O)c1)[C@@H](O)C2 [compound 1, (2R,3S)-2-(3,4-dihydroxyphenyl)-3,4-dihydro-2H-chromene-3,5,7-triol]
- Selective Inhibition of a C4-PEPC ([1]; measured at 50 micromolar and 500 micromolar, FIG. 2): Selective Inhibition

Molecule: Nc1nc2ncc(CNc3ccc(C(=O)N[C@@H](CCC(=O)O)C(=O)O)cc3)nc2c(=O)[nH]1 [compound 4, Folic Acid]
- Selective Inhibition of a C4-PEPC ([1]; measured at 0.025 mM, FIG. 3): Selective Inhibition

Molecule: O=c1c(O)c(-c2ccc(O)c(O)c2)oc2cc(O)ccc12 [fisetin]
- inhibition of PEP carboxylase from C4 plant Amaranthus viridis (PEP carboxylase): inhibited

Molecule: C=C1CCC[C@H]2[C@](C)(CC3=C(O)C(=O)C=C(OC)C3=O)[C@@H](C)CC[C@]12C [ilimaquinone]
- solubility in water [2]: low solubility in water

Molecule: O=c1c(O)c(-c2ccc(O)cc2)oc2cc(O)cc(O)c12 [kaempferol]
- inhibition of PEP carboxylase from C4 plant Amaranthus viridis (PEP carboxylase): inhibited

Molecule: O=c1c(O)c(-c2ccc(O)cc2O)oc2cc(O)cc(O)c12 [morin]
- inhibition of PEP carboxylase from C4 plant Amaranthus viridis (PEP carboxylase): inhibited

Molecule: O=c1c(O)c(-c2cc(O)c(O)c(O)c2)oc2cc(O)cc(O)c12 [myricetin]
- inhibition of PEP carboxylase from C4 plant Amaranthus viridis (PEP carboxylase): inhibited

Molecule: O=c1c(O)c(-c2ccc(O)c(O)c2)oc2cc(O)cc(O)c12 [quercetin]
- inhibition of PEP carboxylase from C4 plant Amaranthus viridis (PEP carboxylase): inhibited

Molecule: C/C=C(\C)c1cc(O)c(C)c2c1Oc1cc(O)cc(C)c1C(=O)O2 [unguinol]
- selective inhibitors of PPDK ([3]; PPDK from C4 plants maize, millet and proso millet): selective inhibitors
- IC50 ([3]; isolated enzyme, read-out: half maximal inhibitory concentration (1050)): 40 µM
- inhibits the enzyme bile salt hydrolase (bile salt hydrolase): inhibits

Molecule: baicalein/baicalin
- inhibition of PEP carboxylase from C4 plant Amaranthus viridis (PEP carboxylase): inhibited
